Results on 55 compounds are retold here after patent US20260184712A1, “Heterocyclic Compounds as ENT Inhibitors and Compounds for Use in the Treatment of Cancers” (iTeos Belgium SA, priority 2022, published 2026).

SMILES strings stand for the structures.

In general, IC50 refers to the midpoint of a concentration-inhibition curve.

The assay deals with T1, human ENT1 (Homo sapiens, UniProt Q99808).
T1 construct: JAR cells expressing ENT1 were purchased from ATCC; host or cells: JAR cells
T1 sequence (Q99808 1-456): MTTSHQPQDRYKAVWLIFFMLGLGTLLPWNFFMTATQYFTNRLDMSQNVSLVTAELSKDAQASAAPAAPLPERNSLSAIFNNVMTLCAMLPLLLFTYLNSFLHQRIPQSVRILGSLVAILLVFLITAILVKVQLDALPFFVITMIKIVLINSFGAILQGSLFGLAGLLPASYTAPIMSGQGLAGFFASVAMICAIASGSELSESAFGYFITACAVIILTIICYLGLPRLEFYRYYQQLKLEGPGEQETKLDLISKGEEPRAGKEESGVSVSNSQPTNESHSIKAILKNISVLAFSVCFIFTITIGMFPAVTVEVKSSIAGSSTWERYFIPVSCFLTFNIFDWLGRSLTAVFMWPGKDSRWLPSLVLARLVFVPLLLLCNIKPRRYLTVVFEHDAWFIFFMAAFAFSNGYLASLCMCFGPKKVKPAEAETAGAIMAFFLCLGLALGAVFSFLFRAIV
Kind of assay: ENT1 binding assay (competition with Sahenta-DY647 on JAR cells). The conditions noted are these: competition with SAHENTA-DY647 binding; IC50 categorized; read-out: Binding Assay IC50. A digest of the protocol:
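Whole-cell competition on JAR cells (native ENT1): 50,000 cells pre-incubated 30 min at 4 °C with compound in HBSS/10 mM Hepes/0.1% BSA, then 100 nM Sahenta-DY647 added for 30 min at 4 °C. After washing, fluorescence (Ex 630/Em 670 nm) read; IC50 from sigmoidal fit, averaged as pIC50.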
Take `C[C@H]1O[C@@H](n2cnc3c(OCCc4cnc(C#N)nc4)ncnc32)[C@H](O)[C@@H]1O` [Compound 347]: the concentration for half-maximal inhibition (IC50) was more than 500 nM.
For the compound `C[C@H]1O[C@@H](n2cnc3c(N4CC(c5ccc([N+](=O)[O-])cc5)C4)ncnc32)[C@H](O)[C@@H]1O` [Compound 209], the IC50 fell in the range of 20 to 500 nM.
With `CCNc1nc2c(OCc3ccc(OC(F)F)cc3)ncnc2n1[C@@H]1O[C@H](C)[C@@H](O)[C@H]1O` [Compound 38], the concentration for half-maximal inhibition (IC50) is 1 to 20 nM.
As to `C[C@H]1O[C@@H](n2c(N[C@H]3CC[C@@](C)(O)CC3)nc3c(OCc4ccc(Cl)cc4)ncnc32)[C@H](O)[C@@H]1O` [Compound 128], the concentration for half-maximal inhibition (IC50) is 1 to 20 nM.
Regarding `C[C@H]1O[C@@H](n2cnc3c(NCc4ccc(N5CCCC5=O)cc4)ncnc32)[C@H](O)[C@@H]1O` [Compound 387], the 50% inhibitory concentration (IC50) was more than 500 nM.
To `Cc1ccc(COc2ncnc3c2nc(NC2CCCC2)n3[C@@H]2O[C@H](C)[C@@H](O)[C@H]2O)cc1` [Compound 90] belongs 1 to 20 nM; to `C[C@H]1O[C@@H](n2cnc3c(SCc4ccc(S(=O)(=O)N(C)C)cc4)ncnc32)[C@H](O)[C@@H]1O` [Compound 366], more than 500 nM.
On to `C[C@H]1O[C@@H](n2cnc3c(C(=O)N4CCC(c5ccc([N+](=O)[O-])cc5)C4)ncnc32)[C@H](O)[C@@H]1O` (stereo partly shown) [Compound 419], for which the IC50 was more than 500 nM.
With `Cc1cc(COc2ncnc3c2nc(NC2CCCC2)n3[C@@H]2O[C@H](C)[C@@H](O)[C@H]2O)ccc1[N+](=O)[O-]` [Compound 86] the figure was less than 1 nM; with `Cc1cn(C2OC(C)C(O)C2O)c2ncnc(SCc3ccc([N+](=O)[O-])cc3)c12` (single isomer, unassigned) [Compound 194], 20 to 500 nM.
To `C[C@H]1O[C@@H](n2cnc3c(OCCc4ccc(C#N)cc4)ncnc32)[C@H](O)[C@@H]1O` [Compound 249] belongs more than 500 nM; to `C[C@H]1O[C@@H](n2cnc3c(OCc4ccc(F)c(F)c4)ncnc32)[C@H](O)[C@@H]1O` [Compound 201], 20 to 500 nM; to `C[C@H]1O[C@@H](n2c(N[C@H]3C[C@@](C)(O)C3)nc3c(OCc4ccc(C#N)cc4)ncnc32)[C@H](O)[C@@H]1O` [Compound 119], 20 to 500 nM.
With `COc1nc(OCc2ccc([N+](=O)[O-])cc2)c2ncn([C@@H]3O[C@H](C)[C@@H](O)[C@H]3O)c2n1` [Compound 283], the half-inhibitory concentration (IC50) was more than 500 nM.
For `C[C@H]1O[C@@H](n2cnc3c(C(=O)NCc4ccccc4)ncnc32)[C@H](O)[C@@H]1O` [Compound 417], the 50% inhibitory concentration (IC50) was more than 500 nM.
To `O=[N+]([O-])c1ccc(COc2ncnc3c2ncn3[C@@H]2O[C@H](COCCN3CCCC3)[C@@H](O)[C@H]2O)cc1` [Compound 240] belongs more than 500 nM.
To `C[C@H]1O[C@@H](n2cnc3c(SCc4nc(-c5ccccc5Cl)no4)ncnc32)[C@H](O)[C@@H]1O` [Compound 310] belongs more than 500 nM.
Take `C[C@H]1O[C@@H](n2c(N)nc3c(OCCc4ccc([N+](=O)[O-])cc4)ncnc32)[C@H](O)[C@@H]1O` [Compound 215]: the IC50 lay within 20 to 500 nM.
Turning to `C[C@H]1O[C@@H](n2cnc3c(OCCc4ccc([N+](=O)[O-])nc4)ncnc32)[C@H](O)[C@@H]1O` [Compound 248], the IC50 is more than 500 nM.
As to `CN(CCO)C(=O)[C@H]1O[C@@H](n2cnc3c(OCc4ccc([N+](=O)[O-])cc4)ncnc32)[C@H](O)[C@@H]1O` [Compound 292], the IC50 is more than 500 nM.
In the case of `CNc1ccccc1COc1ncnc2c1ncn2[C@@H]1O[C@H](C)[C@@H](O)[C@H]1O` [Compound 372], the half-maximal inhibitory concentration (IC50) is more than 500 nM.
For the compound `C[C@H]1O[C@@H](n2cnc3c(C(=O)NCc4ccc(Cl)cc4F)ncnc32)[C@H](O)[C@@H]1O` [Compound 330], the concentration for half-maximal inhibition (IC50) was more than 500 nM.
With `C[C@H]1O[C@@H](n2cnc3c(NCc4ccc5ncccc5c4)ncnc32)[C@H](O)[C@@H]1O` [Compound 376] the figure was more than 500 nM; with `C[C@H]1O[C@@H](n2c(NC3CCCC3)nc3c(OCc4ccc(C(F)F)cc4)ncnc32)[C@H](O)[C@@H]1O` [Compound 94], 1 to 20 nM.
To `C[C@H]1O[C@@H](n2cnc3c(OCc4ccc(C(F)(F)F)cc4)ncnc32)[C@H](O)[C@@H]1O` [Compound 204] belongs 20 to 500 nM.
As to `C[C@H]1O[C@@H](n2c(N(C)C3CCCC3)nc3c(OCc4ccc([N+](=O)[O-])cc4)ncnc32)[C@H](O)[C@@H]1O` [Compound 1], the half-maximal inhibitory concentration (IC50) was more than 500 nM.
With `CNc1nc2c(OCc3ccccc3)ncnc2n1[C@@H]1O[C@H](C)[C@@H](O)[C@H]1O` [Compound 264] the figure was more than 500 nM; with `C[C@H]1O[C@@H](n2cnc3c(NS(=O)(=O)Cc4ccc([N+](=O)[O-])cc4)ncnc32)[C@H](O)[C@@H]1O` [Compound 407], more than 500 nM.
With `C[C@H]1O[C@@H](n2cnc3c(OCc4cccc(OC(F)F)c4)ncnc32)[C@H](O)[C@@H]1O` [Compound 246] the figure was more than 500 nM.
Regarding `C[C@H]1O[C@@H](n2c(NC3CCS(=O)(=O)CC3)nc3c(N4CCc5ccc([N+](=O)[O-])cc5C4)ncnc32)[C@H](O)[C@@H]1O` [Compound 136], the 50% inhibitory concentration (IC50) was less than 1 nM.
As to `C[C@H]1O[C@@H](n2c(N[C@H]3C[C@@H](O)C3)nc3c(OCc4ccc(C#N)cc4)ncnc32)[C@H](O)[C@@H]1O` [Compound 51], the IC50 lay in the range of 1 to 20 nM.
With `C[C@H]1O[C@@H](n2cnc3c(-c4noc(-c5ccc([N+](=O)[O-])cc5)n4)ncnc32)[C@H](O)[C@@H]1O` [Compound 421] the figure was more than 500 nM.
With `C[C@H]1O[C@@H](n2c(NCC3CCOCC3)nc3c(OCc4ccc(C#N)cc4)ncnc32)[C@H](O)[C@@H]1O` [Compound 109] the figure was 1 to 20 nM.
To `C[C@H]1O[C@@H](n2cnc3c(OCCc4ccc(OCF)nc4)ncnc32)[C@H](O)[C@@H]1O` [Compound 336] belongs more than 500 nM.
For the compound `C[C@H]1C[C@@H](n2cnc3c(SCc4ccc([N+](=O)[O-])cc4)ncnc32)[C@H](O)[C@@H]1O` [Compound 214], the concentration for half-maximal inhibition (IC50) lay in the range of 20 to 500 nM.
On to `O=[N+]([O-])c1ccc(COc2ncnc3c2nc(NC2CCCC2)n3[C@@H]2O[C@H](COCCO)[C@@H](O)[C@H]2O)cc1` [Compound 135], for which the half-inhibitory concentration (IC50) was 20 to 500 nM.
Take `C[C@H]1O[C@@H](n2c(NCC3COC3)nc3c(OCc4ccc(C#N)cc4)ncnc32)[C@H](O)[C@@H]1O` [Compound 107]: the IC50 was 20 to 500 nM.
With `C[C@H]1O[C@@H](n2c(NCC3CCOCC3)nc3c(OCc4ccc(Cl)cc4)ncnc32)[C@H](O)[C@@H]1O` [Compound 111] the figure was 20 to 500 nM; with `C[C@H]1O[C@@H](n2cnc3c(OCCc4ccc(C#N)cn4)ncnc32)[C@H](O)[C@@H]1O` [Compound 402], more than 500 nM.
Consider `C[C@H]1O[C@@H](n2cnc3c(NCc4ccc(S(N)(=O)=O)cc4)ncnc32)[C@H](O)[C@@H]1O` [Compound 334], for which the IC50 was more than 500 nM.
For the compound `C[C@H]1O[C@@H](n2c(N)nc3c(OCc4ccccc4)ncnc32)[C@H](O)[C@@H]1O` [Compound 355], the half-maximal inhibitory concentration (IC50) is more than 500 nM.
Consider `C[C@H]1O[C@@H](n2cnc3c(OCc4ccc([N+](=O)[O-])cc4)nccc32)[C@H](O)[C@@H]1O` [Compound 411], for which the half-maximal inhibitory concentration (IC50) was more than 500 nM.
In the case of `C[C@H]1O[C@@H](n2cnc3c(SCc4ncccn4)ncnc32)[C@H](O)[C@@H]1O` [Compound 394], the concentration for half-maximal inhibition (IC50) is more than 500 nM.
For `C[C@H]1O[C@@H](n2cnc3c(OCc4ccc(N5CCCC5)cc4)ncnc32)[C@H](O)[C@@H]1O` [Compound 377], the IC50 was more than 500 nM.
With `C[C@H]1O[C@@H](n2cnc3c(NC(=O)c4ccc([N+](=O)[O-])cc4)ncnc32)[C@H](O)[C@@H]1O` [Compound 412] the figure was more than 500 nM; with `CC(=O)c1ccc(COc2ncnc3c2ncn3[C@@H]2O[C@H](C)[C@@H](O)[C@H]2O)cc1` [Compound 245], more than 500 nM; with `C[C@H]1O[C@@H](n2cnc3c(OCc4ccc(C#N)cc4)nc(Cl)nc32)[C@H](O)[C@@H]1O` [Compound 244], more than 500 nM.
With `C[C@H]1O[C@@H](n2cnc3c(OCc4cccc(C#N)c4)ncnc32)[C@H](O)[C@@H]1O` [Compound 221], the IC50 is more than 500 nM.
To `C[C@H]1O[C@@H](n2cnc3c(OCCc4ccc(C(F)F)nc4)ncnc32)[C@H](O)[C@@H]1O` [Compound 400] belongs more than 500 nM; to `COCCCNc1nc2c(OCc3ccc(C#N)cc3)ncnc2n1[C@@H]1O[C@H](C)[C@@H](O)[C@H]1O` [Compound 45], 1 to 20 nM; to `C[C@H]1O[C@@H](n2cnc3c(SCc4nc5ccccc5o4)ncnc32)[C@H](O)[C@@H]1O` [Compound 392], more than 500 nM.
With `C[C@H]1O[C@@H](n2cnc3c(OCc4ccc(C5CC5)cc4)ncnc32)[C@H](O)[C@@H]1O` [Compound 206] the figure was 20 to 500 nM; with `C[C@H]1O[C@@H](n2cnc3c(OCCc4cnc(C(F)F)nc4)ncnc32)[C@H](O)[C@@H]1O` [Compound 404], more than 500 nM.
In the case of `COc1ccc(COc2ncnc3c2ncn3[C@@H]2O[C@H](C)[C@@H](O)[C@H]2O)cc1C(F)(F)F` [Compound 230], the half-inhibitory concentration (IC50) is more than 500 nM.
To `C[C@H]1O[C@@H](n2c(NCCOc3ccccc3)nc3c(OCc4ccc(OC(F)F)cc4)ncnc32)[C@H](O)[C@@H]1O` [Compound 7] belongs 1 to 20 nM.
